Test results: US4656247A, “Effective hormonal peptides: D-3-QA1 6-LHRH” (Board of Regents, The University of Texas System, priority 1985, dated 1987)

Experiments:
men = details: chronic administration; cited from earlier work
21 day old female rats = experiment: In vivo assay in rats for release of LH and FSH; parameters: species or system rat; details: for LH ng/ml Serum ± SEM: Table VII; for LH ± SEM ng/ml serum / FSH ± SEM ng/ml serum: Table XI, mean 5-6; for Serum FFSH ng/ml ± SEM / Serum LH ng/ml ± SEM: Table VI, sampling time not given
Method: In vivo rat assay performed by a modification of the method of Bowers, C. Y. et al. Endocrinology, 106, 674 (1980). 21 day old female rats were injected sc with saline or peptide. Blood samples for the RIAs of LH and FSH were collected at +15, +60, +120, or +180 minutes. (Table VI-XI).

[1] = system: advanced prostatic carcinoma; details: subcutaneous, daily; cited from earlier work
[2] = Peptides tested biologically (summary statement); details: when tested biologically
[3] = system: pituitary cells from 21 day old rats; experiment: In vitro pituitary incubate assay (release of LH and FSH); assay type: cell-based, rat
Method: The data in Tables IV and V are from the in vitro assay of the peptides with the pituitary incubate. This assay measures the release of LH and FSH in an in vitro system with pituitary cells from 21 day old rats. See, Bowers, C. Y. et al. on the inhibitory effects of leutinizing hormone releasing hormone analogs. Endocrinology, 106: 674 (1980).

[4] = 150 ng sc, first column (+ 2 hrs as in upper part)
[5] = 150 ng sc, second column (+3 hrs as in upper part)

| Compound | LH ng/ml Serum ± SEM (21 day old female rats; ± 15 min) [ng/mL] | LH ng/ml Serum ± SEM (21 day old female rats; ± 60 min) [ng/mL] | LH ± SEM ng/ml serum (21 day old female rats; 150 ng sc, + 2 hrs) | LH ± SEM ng/ml serum (21 day old female rats; 150 ng sc, +3 hrs) [ng/ml serum] | FSH ± SEM ng/ml serum (21 day old female rats; [4]) [ng/ml serum] | FSH ± SEM ng/ml serum (21 day old female rats; [5]) [ng/ml serum] | also measured |
| --- | --- | --- | --- | --- | --- | --- | --- |
| CC(C)C[C@H](NC(=O)[C@@H](Cc1c[nH]c2ccccc12)NC(=O)[C@H](Cc1ccc(O)cc1)NC(=O)[C@H](CO)NC(=O)[C@H](Cc1c[nH]c2ccccc12)NC(=O)[C@H](Cc1c[nH]cn1)NC(=O)[C@@H]1CCC(=O)N1)C(=O)N[C@@H](CCCNC(=N)N)C(=O)N1CCC[C@H]1C(=O)NCC(N)=O [D-Trp^6 -LHRH, pyroGluHis-Trp-Ser-Tyr-D-Trp-Leu-Arg-Pro-Gly-NH2] | 51 ± 10 | 259 ± 34 | 230 ± 41 ng/ml serum | 117 ± 9 | 2332 ± 388 | 2065 ± 151 | effect on Leydig cell function and serum steroid levels (men): suppression of Leydig cell function and decreases in serum levels of testosterone, dihydrotestosterone and estradiol; LH ng/ml Serum ± SEM (21 day old female rats; 10 mg/rat sc, ± 60 min): 31 ± 6 ng/mL; clinical effect in patients with more advanced prostatic disease [1]: pain from bone metastases was relieved; clinical effect in patients with urinary obstruction [1]: noticeable clinical improvement |
| LHRH: leutinizing hormone releasing hormone, the peptide hormone which exists naturally in the hypothalamus | 49 ± 10 | 5.5 ± 0.9 | .18 ± 0.07 ng/ml serum | 0.66 ± 0.46 | 337 ± 20 | 487 ± 72 | Serum FFSH ng/ml ± SEM (21 day old female rats; 15 ng/rat sc): 475 ± 43 ng/mL; Serum LH ng/ml ± SEM (21 day old female rats; 15 ng/rat sc): 1.3 ± 0.2 ng/mL; Serum FFSH ng/ml ± SEM (21 day old female rats; 50 ng/rat sc): 572 ± 68 ng/mL; Serum LH ng/ml ± SEM (21 day old female rats; 50 ng/rat sc): 3.2 ± 0.3 ng/mL; Serum FFSH ng/ml ± SEM (21 day old female rats; 150 ng/rat sc): 839 ± 73 ng/mL; Serum LH ng/ml ± SEM (21 day old female rats; 150 ng/rat sc): 12 ± 3 ng/mL; release of LH (21 day old female rats; at 15 ng): inactive |
| CC(C)C[C@H](NC(=O)[C@@H](Cc1cccnc1)NC(=O)[C@H](Cc1ccc(O)cc1)NC(=O)[C@H](CO)NC(=O)[C@H](Cc1c[nH]c2ccccc12)NC(=O)[C@H](Cc1c[nH]cn1)NC(=O)[C@@H]1CCC(=O)N1)C(=O)N[C@@H](CCCNC(=N)N)C(=O)N1CCC[C@H]1C(=O)NCC(N)=O [D-Pal^6 -LHRH, pyroGlu-His-Trp-Ser-Tyr-D-3-Pal-Leu-Arg-Pro-GlyNH2] |  |  | 144 ± 27 ng/ml serum | 38 ± 6.3 | 2362 ± 293 | 1617 ± 143 | potency compared with LHRH [2]: significantly more potent than LHRH itself; Serum LH ng/ml ± SEM (21 day old female rats; 5 ng/rat sc): 7 ± 1 ng/mL; LH ± SEM ng/ml serum (21 day old female rats; 50 ng sc, + 2 hrs): 108 ± 17 ng/ml serum; LH ± SEM ng/ml serum (21 day old female rats; 50 ng sc, +3 hrs): 20 ± 2.3 ng/ml serum; FSH ± SEM ng/ml serum (21 day old female rats; 50 ng sc, first column (+ 2 hrs as in upper part)): 1727 ± 222 ng/ml serum; FSH ± SEM ng/ml serum (21 day old female rats; 50 ng sc, second column (+3 hrs as in upper part)): 1312 ± 163 ng/ml serum; release of LH (21 day old female rats; dosage of 5 ng): significantly released LH; LH released relative to LHRH, corrected for the level of LH before addition of the peptides (21 day old female rats; dosage of 50 ng): ~50 times; activity for the release of FSH (D-Pal^6 vs D-Qal^6, words) ([3]; at 0.1 ng, Table IV): same essential equivalents; activity for the release of LH (D-Pal^6 vs D-Qal^6, words) ([3]; at 0.1 ng, Table IV): essentially equivalent in activity; potency compared with D-Trp^6 -LHRH, inferred via D-Qal^6 -LHRH ([3]; inference from Table IV and comparable assays): essentially equipotent |
| CCNC(=O)[C@@H]1CCCN1C(=O)[C@H](CCCNC(=N)N)NC(=O)[C@H](CC(C)C)NC(=O)[C@@H](Cc1cccnc1)NC(=O)[C@H](Cc1ccc(O)cc1)NC(=O)[C@H](CO)NC(=O)[C@H](Cc1c[nH]c2ccccc12)NC(=O)[C@H](Cc1c[nH]cn1)NC(=O)[C@@H]1CCC(=O)N1 [Peptide 21436, pryoGlu-His-Trp-Ser-Tyr-D-3-Pal-Leu-Arg-Pro-NHC2 H5] |  |  | 237 ± 52 ng/ml serum | 106 ± 13 | 2415 ± 361 | 2205 ± 298 |  |
| CCNC(=O)[C@@H]1CCCN1C(=O)[C@H](CCCNC(=N)N)NC(=O)[C@H](CC(C)C)NC(=O)[C@@H](Cc1c[nH]c2ccccc12)NC(=O)[C@H](Cc1ccc(O)cc1)NC(=O)[C@H](CO)NC(=O)[C@H](Cc1c[nH]c2ccccc12)NC(=O)[C@H](Cc1c[nH]cn1)NC(=O)[C@@H]1CCC(=O)N1 [D-Trp^6 Pro^9 Net-LHRH, pyroGluHis-Trp-Ser-Tyr-D-Trp-Leu-Arg-Pro-EA**] | 59 ± 10 | 228 ± 41 | 184 ± 29 ng/ml serum | 103 ± 9 | 2260 ± 294 | 1763 ± 148 |  |
